The source of these data is the OPERA property sets (Mansouri et al. 2018).

For the compound `CC(C)c1csc(-c2ccc(C(C)C(=O)O)cc2Cl)n1` (stereo unspecified), the logP stood at 4.78.

As for `CCc1csc(-c2ccc(C(C)C(=O)O)cc2)n1` (stereo unspecified), the logP turned out to be 3.75. Take `CC(C(=O)O)c1ccc(-c2nc(C(=O)N(C)C)cs2)cc1` (stereo unspecified): the log partition coefficient (logP) was 2.15. `CC(=O)c1csc(-c2ccc(C(C)C(=O)O)cc2)n1` (stereo unspecified) returned a log partition coefficient (logP) of 2.65. In turn, `CC(C)c1csc(-c2ccc(C(C)C(=O)O)cc2F)n1` (stereo unspecified) returned a logP of 4.62. Take `Cc1cnc(-c2ccc(C(C)C(=O)O)cc2Cl)s1` (stereo unspecified): the lipophilicity (logP) came out at 3.66. The compound `CC(C(=O)O)c1ccc(-c2nc(-c3ccccc3)cs2)cc1` (stereo unspecified) had a lipophilicity (logP) of 4.95. To `Cc1csc(-c2ccc(C(C)C(=O)O)cc2Cl)n1` (stereo unspecified) belongs 3.65. `COCc1csc(-c2ccc(C(C)C(=O)O)cc2)n1` (stereo unspecified) registered a log partition coefficient (logP) of 2.56. To `CC(C(=O)O)c1ccc(-c2nc(CO)cs2)cc1` (stereo unspecified) belongs 2.25; to `Cc1csc(-c2ccc(C(C)C(=O)O)cc2F)n1` (stereo unspecified), 3.52. As to `CCCCc1csc(-c2ccc(C(C)C(=O)O)cc2)n1` (stereo unspecified), the logP turned out to be 4.83. On to `Cc1cnc(-c2ccc(C(C)C(=O)O)cc2)s1` (stereo unspecified), for which the log partition coefficient (logP) was 3.15. Turning to `CCc1nc(-c2ccc(C(C)C(=O)O)cc2)sc1C` (stereo unspecified), the logP worked out at 3.99. Compound `CC(C(=O)O)c1ccc(-c2nccs2)c([N+](=O)[O-])c1` (stereo unspecified) yielded a log partition coefficient (logP) of 2.06. Next, `Cc1nc(-c2ccc(C(C)C(=O)O)cc2Cl)sc1C` (stereo unspecified): 3.94; `C=Cc1csc(-c2ccc(C(C)C(=O)O)cc2)n1` (stereo unspecified): 3.62. `Cc1cnc(-c2ccc(C(C)C(=O)O)cc2F)s1` (stereo unspecified) registered a logP of 3.55.

With `CCc1cnc(-c2ccc(C(C)C(=O)O)cc2F)s1` (stereo unspecified), the logP worked out at 4.1. `CCc1nc(-c2ccc(C(C)C(=O)O)cc2F)sc1C` (stereo unspecified) gave a logP of 4.44.

`COc1cc(C(C)C(=O)O)ccc1-c1nccs1` (stereo unspecified) displayed a logP of 2.47. To `Cc1csc(-c2ccc(C(C)C(=O)O)cc2)n1` (stereo unspecified) belongs 3.03; to `CC(C(=O)O)c1ccc(-c2nc3c(s2)CCCC3)cc1` (stereo unspecified), 4.41; to `CCCCc1csc(-c2ccc(C(C)C(=O)O)cc2Cl)n1` (stereo unspecified), 5.36.

In turn, `CCc1cnc(-c2ccc(C(C)C(=O)O)cc2)s1` (stereo unspecified) showed a lipophilicity (logP) of 3.72.

With `CC(C(=O)O)c1ccc(-c2nccs2)c(N)c1` (stereo unspecified), the logP was determined as 2.45. In turn, `Cc1nc(-c2ccc(C(C)C(=O)O)cc2F)sc1C` (stereo unspecified) had a log partition coefficient (logP) of 3.74.

The compound `CC(C(=O)O)c1ccc(-c2nc(C(N)=O)cs2)cc1` (stereo unspecified) returned a logP of 2.17. To `Cc1nc(-c2ccc(C(C)C(=O)O)cc2)sc1C` (stereo unspecified) belongs 3.36. To `CC(C(=O)O)c1ccc(-c2nccs2)c(O)c1` (stereo unspecified) belongs 3.18. In turn, `CC(C(=O)O)c1ccc(-c2nccs2)c(F)c1` (stereo unspecified) gave a log partition coefficient (logP) of 3.14. Next, `CCc1nc(-c2ccc(C(C)C(=O)O)cc2Cl)sc1C` (stereo unspecified): 4.62; `CCCCc1csc(-c2ccc(C(C)C(=O)O)cc2F)n1` (stereo unspecified): 5.24.

`CCc1csc(-c2ccc(C(C)C(=O)O)cc2Cl)n1` (stereo unspecified): the lipophilicity (logP) came out at 4.28.

Regarding `CC(C(=O)O)c1ccc(-c2nccs2)c(Br)c1` (stereo unspecified), the logP amounted to 3.35. `Cc1cc(C(C)C(=O)O)ccc1-c1nccs1` (stereo unspecified) returned a lipophilicity (logP) of 3.06.

`CC(C(=O)O)c1ccc(-c2nccs2)cc1` (stereo unspecified) gave a lipophilicity (logP) of 2.79. To `CC(C(=O)O)c1ccc(-c2nccs2)c(Cl)c1` (stereo unspecified) belongs 3.39; to `CNC(=O)c1csc(-c2ccc(C(C)C(=O)O)cc2)n1` (stereo unspecified), 2.45; to `C=CCc1csc(-c2ccc(C(C)C(=O)O)cc2)n1` (stereo unspecified), 4.11. For `CCc1cnc(-c2ccc(C(C)C(=O)O)cc2Cl)s1` (stereo unspecified), the log partition coefficient (logP) came to 4.39. Regarding `CC(C(=O)O)c1ccc(-c2nc(C(F)(F)F)cs2)cc1` (stereo unspecified), the logP worked out at 3.78. `CC(C)c1csc(-c2ccc(C(C)C(=O)O)cc2)n1` (stereo unspecified) registered a logP of 4.29. To `CC(C(=O)O)c1ccc(-c2nccs2)c(C(F)(F)F)c1` (stereo unspecified) belongs 3.06. `CSc1cc(C(C)C(=O)O)ccc1-c1nccs1` (stereo unspecified) returned a log partition coefficient (logP) of 3.02. To `CCc1csc(-c2ccc(C(C)C(=O)O)cc2F)n1` (stereo unspecified) belongs 4.16.
